pKi: −log10 of the molar value.
How the values were obtained:
Assay in all cases: binding to AX14596 beads (HeLa lysate, SILAC MS)
[1] = target: JNK2 (MAPK9) (Homo sapiens, UniProt P45984)
[2] = target: T1, ALK2 (ACVR1) (Homo sapiens, UniProt Q04771)
T1 sequence (Q04771 21-509): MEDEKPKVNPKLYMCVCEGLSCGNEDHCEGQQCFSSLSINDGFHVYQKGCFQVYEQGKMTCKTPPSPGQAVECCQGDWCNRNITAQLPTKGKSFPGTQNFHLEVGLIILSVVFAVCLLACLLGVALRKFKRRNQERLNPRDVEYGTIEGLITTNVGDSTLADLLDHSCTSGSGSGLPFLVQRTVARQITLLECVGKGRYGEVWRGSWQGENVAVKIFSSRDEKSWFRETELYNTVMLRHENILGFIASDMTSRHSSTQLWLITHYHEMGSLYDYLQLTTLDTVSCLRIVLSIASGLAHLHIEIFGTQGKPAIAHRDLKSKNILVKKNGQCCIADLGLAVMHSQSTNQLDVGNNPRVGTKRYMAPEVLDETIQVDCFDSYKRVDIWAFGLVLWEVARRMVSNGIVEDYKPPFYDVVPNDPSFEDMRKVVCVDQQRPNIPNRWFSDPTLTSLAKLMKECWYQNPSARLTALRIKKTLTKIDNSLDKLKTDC

[3] = target: T2, PKD3 (PRKD3) (Homo sapiens, UniProt O94806)
T2 construct: endogenous in cells; host or cells: HeLa S3

[4] = target: T3, SgK085 (MYLK3) (Homo sapiens, UniProt Q32MK0)
T3 sequence (Q32MK0 1-819): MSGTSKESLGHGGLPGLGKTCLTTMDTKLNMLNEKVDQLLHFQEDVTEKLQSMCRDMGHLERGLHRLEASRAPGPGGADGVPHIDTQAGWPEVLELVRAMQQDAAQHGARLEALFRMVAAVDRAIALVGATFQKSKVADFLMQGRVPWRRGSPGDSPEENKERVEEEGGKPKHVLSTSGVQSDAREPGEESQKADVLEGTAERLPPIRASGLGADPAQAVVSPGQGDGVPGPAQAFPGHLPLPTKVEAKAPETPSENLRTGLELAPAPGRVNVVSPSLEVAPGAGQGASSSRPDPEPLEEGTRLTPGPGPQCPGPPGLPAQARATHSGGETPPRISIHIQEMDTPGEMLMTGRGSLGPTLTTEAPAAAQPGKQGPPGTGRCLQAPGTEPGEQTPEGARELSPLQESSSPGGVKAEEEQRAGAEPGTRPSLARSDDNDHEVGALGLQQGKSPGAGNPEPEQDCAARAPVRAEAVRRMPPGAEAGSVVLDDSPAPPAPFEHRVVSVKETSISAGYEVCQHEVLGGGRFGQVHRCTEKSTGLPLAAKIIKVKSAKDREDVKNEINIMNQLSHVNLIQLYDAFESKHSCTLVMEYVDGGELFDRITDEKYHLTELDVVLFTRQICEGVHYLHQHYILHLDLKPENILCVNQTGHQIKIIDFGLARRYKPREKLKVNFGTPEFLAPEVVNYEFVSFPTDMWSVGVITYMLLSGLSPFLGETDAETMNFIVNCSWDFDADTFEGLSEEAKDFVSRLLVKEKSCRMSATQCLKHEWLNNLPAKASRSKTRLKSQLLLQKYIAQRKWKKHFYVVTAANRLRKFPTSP

Sequence of JNK2 (MAPK9) (P45984 whole entry): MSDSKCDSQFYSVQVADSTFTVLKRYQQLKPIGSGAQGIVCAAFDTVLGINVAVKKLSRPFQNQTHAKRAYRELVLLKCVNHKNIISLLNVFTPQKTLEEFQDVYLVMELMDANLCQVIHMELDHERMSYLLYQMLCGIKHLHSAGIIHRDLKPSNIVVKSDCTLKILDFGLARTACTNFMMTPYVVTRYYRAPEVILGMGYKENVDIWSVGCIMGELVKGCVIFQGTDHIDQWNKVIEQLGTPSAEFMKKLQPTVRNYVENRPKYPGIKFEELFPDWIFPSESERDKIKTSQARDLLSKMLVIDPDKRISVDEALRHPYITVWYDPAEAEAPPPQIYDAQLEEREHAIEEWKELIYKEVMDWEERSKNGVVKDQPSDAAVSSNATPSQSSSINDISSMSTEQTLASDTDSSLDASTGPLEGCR
T2 sequence (O94806 whole entry): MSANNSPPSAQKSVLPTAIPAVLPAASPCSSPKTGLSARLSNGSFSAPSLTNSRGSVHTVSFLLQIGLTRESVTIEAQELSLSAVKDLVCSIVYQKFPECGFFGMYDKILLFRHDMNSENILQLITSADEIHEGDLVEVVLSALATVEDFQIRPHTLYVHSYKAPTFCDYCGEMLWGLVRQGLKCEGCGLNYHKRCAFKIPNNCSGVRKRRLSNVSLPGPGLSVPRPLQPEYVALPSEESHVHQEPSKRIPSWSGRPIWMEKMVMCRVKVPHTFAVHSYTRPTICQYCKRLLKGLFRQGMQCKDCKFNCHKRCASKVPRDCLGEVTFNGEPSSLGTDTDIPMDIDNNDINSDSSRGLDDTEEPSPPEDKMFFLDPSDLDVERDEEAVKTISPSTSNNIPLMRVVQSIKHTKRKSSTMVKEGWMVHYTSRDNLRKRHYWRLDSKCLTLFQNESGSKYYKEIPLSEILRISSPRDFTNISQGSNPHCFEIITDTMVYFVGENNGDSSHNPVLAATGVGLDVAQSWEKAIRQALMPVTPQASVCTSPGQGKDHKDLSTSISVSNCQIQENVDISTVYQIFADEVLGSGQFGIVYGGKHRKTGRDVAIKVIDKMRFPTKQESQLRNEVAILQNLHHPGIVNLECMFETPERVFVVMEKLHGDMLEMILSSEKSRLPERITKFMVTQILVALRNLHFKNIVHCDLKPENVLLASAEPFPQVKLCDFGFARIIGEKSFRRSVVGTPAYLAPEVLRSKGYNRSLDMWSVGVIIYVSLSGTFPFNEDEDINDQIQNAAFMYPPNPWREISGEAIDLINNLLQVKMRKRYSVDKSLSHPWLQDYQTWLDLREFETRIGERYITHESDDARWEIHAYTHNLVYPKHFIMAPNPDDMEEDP

COc1cc2ncnc(Nc3ccc(F)c(Cl)c3)c2cc1OCCCN [AX14596]
pKi [1]: 3.96 | r (3 mg/1 mg lysate) [1]: 2.58 | r (5 h/2.5 h inc. time) [1]: 0.95 | rAVERAGE (2. inc/1. inc) [1]: 0.52 | rAVERAGE (control/1. inc) [1]: 0.03 | % BOUND ([1]; bound to AX14596 beads): 48% | pKi [2]: 3.69 | r (3 mg/1 mg lysate) [2]: 2.57 | r (5 h/2.5 h inc. time) [2]: 1.17 | rAVERAGE (2. inc/1. inc) [2]: 0.67 | rAVERAGE (control/1. inc) [2]: 0.15 | pKi [3]: 2.82 | r (3 mg/1 mg lysate) [3]: 2.49 | r (5 h/2.5 h inc. time) [3]: 1.05 | rAVERAGE (2. inc/1. inc) [3]: 0.94 | rAVERAGE (control/1. inc) [3]: 0.08 | pKi [4]: 3.73 | r (3 mg/1 mg lysate) [4]: 2.56 | r (5 h/2.5 h inc. time) [4]: 0.97 | rAVERAGE (2. inc/1. inc) [4]: 0.65 | rAVERAGE (control/1. inc) [4]: 0.00

Source: patent publication US8959984B2, “Proteome-wide quantification of small molecule binding to cellular target proteins” (priority 2007, dated 2015)
